Results on one compound are retold here after ChEMBL document CHEMBL4715724, “Novel 5-substituted-2-anilinoquinolines with 3-(morpholino or 4-methylpiperazin-1-yl)propoxy moiety as broad spectrum antiproliferative agents: Synthesis, cell based assays and kinase screening” (Bioorg Med Chem Lett, 2016).

As a reminder, the GI50 is the concentration giving 50% growth inhibition. Low readings indicate more potent growth inhibition, high ones less potent growth inhibition. What is called LC50 is the concentration lethal to half of the exposed cells or organisms. The low end stands for a more lethal substance, the high end for a less lethal substance. Broadly, the TGI is the concentration giving total growth inhibition. A high value points to less potent growth arrest. For orientation: inhibition means the change of the read-out against control, counted positive when it falls.

Experiment [1] relates to Panel ovarian (Carcinoma cell lines). Nature of the experiment: cells. To be noted: Homo sapiens, time 48 hrs. Format: functional.
Description: Growth inhibition of human Panel ovarian (Carcinoma cell lines) incubated for 48 hrs by sulforhodamine B assay
The next experiment deals with U-251. Nature of the experiment: cells. Format: functional. The following applies: Homo sapiens, time 48 hrs.
The subject of the next experiment is UACC-62. The experiment in a line: cells. Format: functional. The following applies: Homo sapiens, time 48 hrs.
Experiment [2] concerns Panel breast (Carcinoma cell lines). Nature of the experiment: cells. The following applies: Homo sapiens, time 48 hrs. It counts as functional.
Description: Growth inhibition of human Panel breast (Carcinoma cell lines) incubated for 48 hrs by sulforhodamine B assay
The next experiment relates to SK-MEL-28. Nature of the experiment: cells. The following applies: Homo sapiens, time 48 hrs. It counts as functional.
In experiment [3] the target is Rho-associated protein kinase 1 (Homo sapiens) (UniProt Q13464). The experiment in a line: Inhibition of auto-activated recombinant N-terminal His6-tagged human ROCK1 (17 to 535 residues) expressed in baculovirus infected Sf21 insect cells at 10 uM incubated in presence of Mg/ATP relative to control.
Experiment [4] has as its system PI3-kinase p110-alpha/p85-alpha (Homo sapiens), P27986+P42336 [E542K]. The experiment in a line: Inhibition of p110alpha/p85alpha E542K mutant (unknown origin) at 10 uM relative to control. It counts as protein-complex assay.
The next experiment relates to HCT-116. Nature of the experiment: cells. It counts as functional. To be noted: Homo sapiens, time 48 hrs.
Experiment [5] concerns the target Tyrosine-protein kinase BTK (Homo sapiens) (UniProt Q06187). The experiment in a line: Inhibition of recombinant full length N-terminal His6-tagged human BTK expressed in baculovirus infected Sf21 cells assessed as residual activity at 10 uM relative to control.
For the next experiment, the system named is HOP-62. Nature of the experiment: cells. Format: functional. To be noted: Homo sapiens, time 48 hrs.
The target in experiment [6] is Aurora kinase A (Homo sapiens) (UniProt O14965). Nature of the experiment: Inhibition of human recombinant Aurora A assessed as residual activity at 10 uM relative to control.
Aurora kinase A (Homo sapiens), sequence (O14965 whole entry): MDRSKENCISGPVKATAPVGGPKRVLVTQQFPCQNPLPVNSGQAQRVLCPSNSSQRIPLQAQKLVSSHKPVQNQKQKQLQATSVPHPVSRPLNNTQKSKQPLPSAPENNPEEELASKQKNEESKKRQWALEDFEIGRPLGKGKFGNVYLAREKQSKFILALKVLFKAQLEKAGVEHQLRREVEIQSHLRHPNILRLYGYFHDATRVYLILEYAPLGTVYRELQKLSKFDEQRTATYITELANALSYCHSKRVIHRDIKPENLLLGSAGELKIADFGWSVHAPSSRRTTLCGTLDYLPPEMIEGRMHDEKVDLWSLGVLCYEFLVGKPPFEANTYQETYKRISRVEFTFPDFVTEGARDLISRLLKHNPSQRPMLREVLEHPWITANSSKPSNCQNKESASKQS
Experiment [7] addresses Cyclin-dependent kinase 2/cyclin E1 (Homo sapiens) (UniProt P24864+P24941). Nature of the experiment: Inhibition of full length C-terminal His6-tagged human CDK2/full length N-terminal GST-tagged human Cyclin E expressed in baculovirus infected Sf21 insect cells assessed as residual activity at 10 uM relative to control.
Experiment [8] concerns Serine/threonine-protein kinase B-raf (Homo sapiens), P15056 [V600E]. The experiment in a line: Inhibition of recombinant N-terminal GST-tagged human BRAF V599E mutant (417 to 766 residues) expressed in Sf9 cells assessed as residual activity at 10 uM relative to control.
Serine/threonine-protein kinase B-raf (Homo sapiens), P15056 [V600E], sequence (P15056 whole entry V600E, the tested form may be a part): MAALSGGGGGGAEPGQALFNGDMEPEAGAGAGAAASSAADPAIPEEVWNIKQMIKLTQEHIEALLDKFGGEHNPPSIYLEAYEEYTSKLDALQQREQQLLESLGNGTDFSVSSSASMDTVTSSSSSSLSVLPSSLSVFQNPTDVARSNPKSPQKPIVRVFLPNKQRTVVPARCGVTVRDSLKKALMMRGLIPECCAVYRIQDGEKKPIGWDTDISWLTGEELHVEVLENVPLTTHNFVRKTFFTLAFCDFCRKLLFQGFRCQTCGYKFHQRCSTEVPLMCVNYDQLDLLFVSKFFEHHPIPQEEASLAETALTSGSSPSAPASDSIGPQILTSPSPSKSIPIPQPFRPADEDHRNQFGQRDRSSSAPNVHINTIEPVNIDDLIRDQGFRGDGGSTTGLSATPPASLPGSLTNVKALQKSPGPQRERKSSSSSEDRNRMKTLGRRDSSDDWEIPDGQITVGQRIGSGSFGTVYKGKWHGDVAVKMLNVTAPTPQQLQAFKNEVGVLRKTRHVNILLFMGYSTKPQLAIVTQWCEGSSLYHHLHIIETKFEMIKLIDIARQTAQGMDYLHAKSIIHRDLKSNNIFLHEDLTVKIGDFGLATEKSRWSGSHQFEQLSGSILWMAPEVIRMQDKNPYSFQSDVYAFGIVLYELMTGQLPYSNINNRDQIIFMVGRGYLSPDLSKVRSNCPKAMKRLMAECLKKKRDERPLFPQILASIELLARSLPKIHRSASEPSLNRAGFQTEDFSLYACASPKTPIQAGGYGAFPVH
Experiment [9] has as its system Panel CNS (Carcinoma cell lines). Nature of the experiment: cells. It counts as functional. The following applies: Homo sapiens, time 48 hrs.
Description: Growth inhibition of human Panel CNS (Carcinoma cell lines) incubated for 48 hrs by sulforhodamine B assay
For experiment [10], the target named is Ephrin type-B receptor 2 (Homo sapiens) (UniProt P29323). Nature of the experiment: Inhibition of N-terminal His6-tagged human EphB2 (560 to end residues) expressed in baculovirus-infected Sf21 cells assessed as residual activity at 10 uM relative to control.
Ephrin type-B receptor 2 (Homo sapiens), sequence (P29323 whole entry): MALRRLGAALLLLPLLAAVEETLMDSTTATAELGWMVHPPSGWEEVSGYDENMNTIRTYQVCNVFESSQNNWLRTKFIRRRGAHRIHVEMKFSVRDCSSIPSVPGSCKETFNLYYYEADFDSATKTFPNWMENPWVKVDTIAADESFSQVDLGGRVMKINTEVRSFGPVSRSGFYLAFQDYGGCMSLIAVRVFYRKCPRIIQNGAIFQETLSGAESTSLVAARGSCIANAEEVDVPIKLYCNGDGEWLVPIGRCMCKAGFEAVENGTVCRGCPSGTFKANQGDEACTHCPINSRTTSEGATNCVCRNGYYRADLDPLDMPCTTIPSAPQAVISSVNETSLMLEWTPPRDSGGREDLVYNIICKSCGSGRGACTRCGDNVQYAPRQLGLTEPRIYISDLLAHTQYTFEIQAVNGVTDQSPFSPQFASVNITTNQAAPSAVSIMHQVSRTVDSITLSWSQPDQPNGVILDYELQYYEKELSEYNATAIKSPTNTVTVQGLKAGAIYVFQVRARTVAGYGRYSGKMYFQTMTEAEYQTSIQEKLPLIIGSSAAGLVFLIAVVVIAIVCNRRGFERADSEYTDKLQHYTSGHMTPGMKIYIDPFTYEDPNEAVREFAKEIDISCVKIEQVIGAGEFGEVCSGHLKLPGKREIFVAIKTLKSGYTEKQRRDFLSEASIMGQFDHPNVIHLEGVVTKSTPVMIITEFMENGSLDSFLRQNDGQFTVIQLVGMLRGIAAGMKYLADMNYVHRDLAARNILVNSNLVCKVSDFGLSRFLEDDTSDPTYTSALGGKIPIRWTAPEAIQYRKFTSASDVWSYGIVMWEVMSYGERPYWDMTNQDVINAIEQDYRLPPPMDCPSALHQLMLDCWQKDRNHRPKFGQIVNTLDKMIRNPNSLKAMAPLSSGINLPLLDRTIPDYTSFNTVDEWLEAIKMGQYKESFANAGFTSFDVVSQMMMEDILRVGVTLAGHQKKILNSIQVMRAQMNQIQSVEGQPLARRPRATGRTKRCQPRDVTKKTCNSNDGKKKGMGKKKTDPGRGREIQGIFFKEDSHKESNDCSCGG
For experiment [11], the target named is Serine/threonine-protein kinase mTOR (Homo sapiens) (UniProt P42345). The experiment in a line: Inhibition of human mTOR at 10 uM relative to control.
The target of experiment [12] is Platelet-derived growth factor receptor alpha (Homo sapiens) (UniProt P16234). The experiment in a line: Inhibition of recombinant N-terminal His6-tagged human PDGFRalpha (550 to end residues) expressed in baculovirus infected Sf21 insect cells at 10 uM relative to control.
Platelet-derived growth factor receptor alpha (Homo sapiens), sequence (P16234 whole entry): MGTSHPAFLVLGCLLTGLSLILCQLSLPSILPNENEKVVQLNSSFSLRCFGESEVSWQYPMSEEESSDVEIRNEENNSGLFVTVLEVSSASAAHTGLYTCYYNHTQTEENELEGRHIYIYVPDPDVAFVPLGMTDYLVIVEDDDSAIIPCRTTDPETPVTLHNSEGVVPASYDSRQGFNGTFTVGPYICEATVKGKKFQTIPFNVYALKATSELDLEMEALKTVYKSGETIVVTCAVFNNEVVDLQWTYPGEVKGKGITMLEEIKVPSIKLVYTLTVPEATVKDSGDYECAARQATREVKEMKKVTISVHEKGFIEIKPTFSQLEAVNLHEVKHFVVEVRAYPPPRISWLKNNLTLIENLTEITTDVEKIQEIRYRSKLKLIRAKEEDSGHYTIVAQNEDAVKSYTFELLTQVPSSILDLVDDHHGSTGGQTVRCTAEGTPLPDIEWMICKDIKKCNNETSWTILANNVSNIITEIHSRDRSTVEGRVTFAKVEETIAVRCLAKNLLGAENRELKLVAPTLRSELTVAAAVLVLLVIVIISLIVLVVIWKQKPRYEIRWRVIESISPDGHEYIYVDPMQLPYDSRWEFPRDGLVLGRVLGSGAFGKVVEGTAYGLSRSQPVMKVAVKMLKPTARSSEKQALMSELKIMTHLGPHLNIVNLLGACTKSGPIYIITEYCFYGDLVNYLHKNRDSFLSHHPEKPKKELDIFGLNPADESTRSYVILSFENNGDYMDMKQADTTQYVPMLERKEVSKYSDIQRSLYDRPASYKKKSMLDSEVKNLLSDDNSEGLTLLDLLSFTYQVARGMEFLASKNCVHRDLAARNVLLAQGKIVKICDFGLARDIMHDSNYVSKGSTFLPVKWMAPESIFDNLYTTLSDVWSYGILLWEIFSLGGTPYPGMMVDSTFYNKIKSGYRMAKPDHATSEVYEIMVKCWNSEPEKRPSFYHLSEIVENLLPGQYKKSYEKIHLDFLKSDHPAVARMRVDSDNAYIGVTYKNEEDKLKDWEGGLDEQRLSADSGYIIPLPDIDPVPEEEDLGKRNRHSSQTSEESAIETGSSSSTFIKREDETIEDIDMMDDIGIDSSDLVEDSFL
[13] abbreviates: read-out: LC50 (the source's name).

Tyrosine-protein kinase BTK (Homo sapiens), sequence (Q06187 whole entry): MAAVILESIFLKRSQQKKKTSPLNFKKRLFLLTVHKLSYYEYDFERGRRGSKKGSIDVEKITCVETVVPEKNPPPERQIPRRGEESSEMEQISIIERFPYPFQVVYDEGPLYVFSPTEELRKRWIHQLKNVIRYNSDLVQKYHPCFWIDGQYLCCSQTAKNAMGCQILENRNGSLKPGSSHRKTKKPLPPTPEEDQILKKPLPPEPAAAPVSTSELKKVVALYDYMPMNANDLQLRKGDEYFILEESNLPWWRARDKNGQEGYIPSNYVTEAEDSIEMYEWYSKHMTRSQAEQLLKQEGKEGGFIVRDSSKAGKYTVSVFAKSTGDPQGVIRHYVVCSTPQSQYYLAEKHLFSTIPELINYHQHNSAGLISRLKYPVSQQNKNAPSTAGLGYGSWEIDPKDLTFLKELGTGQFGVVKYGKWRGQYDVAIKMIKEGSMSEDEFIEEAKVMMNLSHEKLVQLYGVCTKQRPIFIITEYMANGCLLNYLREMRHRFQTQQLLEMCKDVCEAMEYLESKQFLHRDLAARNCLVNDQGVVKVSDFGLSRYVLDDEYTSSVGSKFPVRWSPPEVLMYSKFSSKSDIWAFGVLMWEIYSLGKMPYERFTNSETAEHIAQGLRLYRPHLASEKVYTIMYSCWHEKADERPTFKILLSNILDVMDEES
Description for HCT-116: Growth inhibition of human HCT-116 cells incubated for 48 hrs by sulforhodamine B assay
Description for HOP-62: Growth inhibition of human HOP-62 cells incubated for 48 hrs by sulforhodamine B assay
Description for SK-MEL-28: Growth inhibition of human SK-MEL-28 cells incubated for 48 hrs by sulforhodamine B assay
Description for U-251: Growth inhibition of human U-251 cells incubated for 48 hrs by sulforhodamine B assay
Description for UACC-62: Growth inhibition of human UACC-62 cells incubated for 48 hrs by sulforhodamine B assay

Regarding `CN1CCN(CCCOc2cccc3nc(Nc4ccc(Cl)c(C(F)(F)F)c4)ccc23)CC1`, the GI50 came out at 1.98 µM in [1]; 1.49 µM with U-251; 1.72 µM in the experiment on UACC-62; 1.69 µM in experiment [2]; 1.39 µM in the experiment on SK-MEL-28; 1.5 µM in the experiment on HCT-116. Further, the GI50 in the experiment on HOP-62 came out at 1.7 µM; in experiment [9], 1.65 µM. The LC50 in experiment [1] turned out to be 10.3 µM. Besides, the TGI was found to be 4.18 µM in experiment [1], 3.63 µM in experiment [2] and 3.67 µM in experiment [9]. For the same compound, the CC50 turned out to be 11.2 µM in [2] (setting [13]) and 6.98 µM in experiment [9] (setting [13]). Besides, the inhibition in experiment [3], in [4], in [11] and in experiment [12] was less than 60% throughout. For the same compound, the Activity in experiment [5], in experiment [6], in experiment [7], in experiment [8] and in experiment [10] was less than 60% each time.
